{"source": "paper PMC12495087", "about": "(ESMO Open, 2025)", "origin": "cited, not measured here", "key": {"[1]": {"system": "RET-fusion-positive solid tumors including RET-mutant MTC", "conditions": "cited from earlier work"}, "[2]": {"conditions": "cited from earlier work"}, "[3]": {"system": "RET-fusion-positive NSCLC", "conditions": "cited from earlier work"}, "[4]": {"conditions": "patients with MTC harboring RET-M918T"}, "[5]": {"conditions": "previously treated RET-fusion-positive solid tumors including RET-mutant MTC, 160 mg twice daily"}, "[6]": {"conditions": "previously treated RET-fusion-positive NSCLC, selpercatinib 160 mg twice daily, pralsetinib 400 mg once daily"}, "[7]": {"conditions": "advanced RET-rearranged lung adenocarcinomas"}}, "note": "Like-named read-outs stand apart in the source and are kept apart here."}
{"smiles": "COc1cc2nccc(Oc3ccc(NC(=O)NC4CC4)c(Cl)c3)c2cc1C(N)=O", "note": "[lenvatinib]", "values": [{"measurement": "ORR", "setting": "[1]; [4]", "result": 16, "unit": "%"}, {"measurement": "mPFS", "setting": "[1]; [4]", "result": 7.3, "unit": "months"}]}
{"smiles": "COc1ccc(CN2C3CC2CN(c2ccc(-c4cc(OCC(C)(C)O)cn5ncc(C#N)c45)cn2)C3)cn1", "note": "[selpercatinib]", "values": [{"measurement": "1-year PFS", "setting": "[1]; [5]", "result": 82, "unit": "%"}, {"measurement": "mPFS", "setting": "[1]; [5]", "result": 13.2, "unit": "months"}, {"measurement": "grade ≥3 hypertension", "setting": "[2]", "result": "around 20%"}, {"measurement": "mPFS", "setting": "[3]; previously treated RET-fusion-positive NSCLC, 160 mg twice daily", "result": 16.5, "unit": "months"}, {"measurement": "ORR", "setting": "[3]; [6]", "result": 64, "unit": "%"}]}
{"smiles": "CO[C@]1(C(=O)N[C@@H](C)c2ccc(-n3cc(F)cn3)nc2)CC[C@H](c2nc(C)cc(Nc3cc(C)[nH]n3)n2)CC1", "note": "[pralsetinib]", "values": [{"measurement": "grade ≥3 hypertension", "setting": "[2]", "result": "~18", "unit": "%"}, {"measurement": "ORR", "setting": "[3]; [6]", "result": 61, "unit": "%"}]}
{"smiles": "COc1cc2nccc(Oc3ccc(NC(=O)C4(C(=O)Nc5ccc(F)cc5)CC4)cc3)c2cc1OC", "note": "[cabozantinib]", "values": [{"measurement": "ORR", "setting": "[3]; [7]", "result": 28, "unit": "%"}, {"measurement": "mPFS", "setting": "[3]; [7]", "result": 5.5, "unit": "months"}]}
